A short description of data set [1]: Inhibition of NLRP3 inflammasome in mouse J774.A1 cells assessed as inhibition of IL-1 beta secretion. The class given is cell-based.
Data set [2] can be described thus: Antiinflammatory activity against LPS-stimulated human MDM cells assessed as inhibition of LPS-induced IL-1beta level at 20 uM incubated for 24 hrs by ELISA relative to control. In kind it is functional. Also on record: scale not given: the % may be the effect or the level left.
The nature of data set [3]: Inhibition of NLRP3 inflammasome activation in LPS-induced mouse RAW264.7 cells assessed as downregulation of NLRP3 expression. The class given is cell-based.
The nature of data set [4]: Inhibition of NLRP3 inflammasome activation in LPS-induced mouse RAW264.7 cells assessed as reduction of NLRP3 expression by Western blot analysis. In kind it is cell-based.
For another data set, the system named is RAW264.7. Nature of the data set: Antiinflammatory activity against mouse RAW264.7 cells assessed as decrease in LPS-induced IL-1beta level at 20 uM incubated for 24 hrs by ELISA relative to control. The class given is functional. The arrangement: scale not given: the % may be the effect or the level left. A general note: ELISA stands for enzyme-linked immunosorbent assay.

A short description of data set [5]: Cytotoxicity against human PBMC cells assessed as reduction in cell viability by CellTiter Glo assay. The class given is functional, cell-based. For orientation: ATP-based viability assays read luminescence as a measure of living cells.
The nature of data set [6]: Oral bioavailability in human. As to conditions: in vivo. The class given is ADME, organism-based.

For the compound `COc1ccc(Cl)cc1C(=O)NCCc1ccc(S(=O)(=O)NO)cc1`, in data set [1], the IC50 came to 8450 nM.

Take `CS(=O)(=O)CCC#N`: the Activity in data set [2] was determined as 60%. For the compound `COc1ccc(CNS(=O)(=O)c2ccc(CCNC(=O)c3cc(Cl)ccc3OC)cc2)cc1`, in data set [3], the IC50 is 450 nM. For `COc1ccc(Cl)cc1C(=O)NCCc1ccc(S(=O)(=O)NC(=O)NC2CCCCC2)cc1` [GLYBURIDE], in data set [4], the IC50 is 13000 nM. `CC(C)(O)c1coc(S(=O)(=O)NC(=O)Nc2c3c(cc4c2CCC4)CCC3)c1`: the IC50 in data set [3] came to 7.5 nM. With `CC(C)C[C@H](NC(=O)CNC(=O)c1cc(Cl)ccc1Cl)B(O)O` [IXAZOMIB], in the data set on RAW264.7, the Activity turned out to be 77%.

As to `CNS(=O)(=O)c1ccc(CCNC(=O)c2ccccc2)cc1`, in data set [3], the IC50 stood at 147 nM. Same read-out and setting: the result for `CCCCN(CCCC)S(=O)(=O)c1ccc(CCNC(=O)c2cc(Cl)ccc2OC)cc1` reads 550 nM. Consider `C=C1C(=O)[C@]23[C@H](O)[C@H]1CC[C@H]2[C@@]12CO[C@]3(O)[C@@H](O)[C@@H]1C(C)(C)CC[C@@H]2O` [ORIDONIN], for which the half-maximal inhibitory concentration (IC50) in data set [5] turned out to be 5180 nM. Regarding `CC(C)C[C@H](NC(=O)[C@H](Cc1ccccc1)NC(=O)c1c(F)cccc1F)B(O)O`, the bioavailability in data set [6] was 48.1%.

The term IC50 denotes the concentration that gives 50% inhibition. The bioavailability is the share of a dose that reaches the circulation, judged against a reference dose that is usually intravenous.

The values above are taken from ChEMBL document CHEMBL6092130, “Recent advances in the treatment of gout with NLRP3 inflammasome inhibitors” (Bioorg Med Chem, 2024).
